≈ marks a conversion by molar mass, not a printed value.
Key:
Type in all cases: functional
Staphylococcus aureus [1] = test: Tested for the minimum inhibitory concentration against Staphylococcus aureus col
Streptococcus pneumoniae = test: Tested for the minimum inhibitory concentration against Streptococcus pneumoniae 3512
Saccharomyces cerevisiae = test: Tested for the minimum inhibitory concentration against Saccharomyces cerevisiae NCYC 81
Escherichia coli [2] = test: Tested for the minimum inhibitory concentration against Escherichia coli 1852E + 3 ug/mL PMBN
Bacillus subtilis = test: Tested for the minimum inhibitory concentration against Bacillus subtilis 6633
Escherichia coli [3] = test: Tested for the minimum inhibitory concentration against Escherichia coli 1852E PM
Enterococcus faecalis = test: Tested for the minimum inhibitory concentration against […] faecalis 850E
Staphylococcus aureus [4] = test: Tested for the minimum inhibitory concentration against Staphylococcus aureus 853E

Structure (SMILES) | MIC (Staphylococcus aureus [1]) | MIC (Streptococcus pneumoniae) | MIC (Saccharomyces cerevisiae) | MIC (Escherichia coli [2]) | MIC (Bacillus subtilis) | MIC (Escherichia coli [3]) | MIC (Enterococcus faecalis) | MIC (Staphylococcus aureus [4])
CO/N=C(\C(=O)N[C@@H]1C(=O)N2C(C(=O)O)=C(CSc3nc(=O)c(O)nn3C)CS[C@H]12)c1csc(N)n1 [CEFTRIAXONE] | > 32 µg/mL | 0.01 µg/mL (≈ 0.018 µM) | > 32 µg/mL | 0.01 µg/mL | 0.25 µg/mL (≈ 0.451 µM) | 0.06 µg/mL (≈ 0.108 µM) | 16 µg/mL (≈ 28.9 µM) | 4 µg/mL (≈ 7.21 µM)
COC1=CC(=O)N(C(=O)[C@H]2CSC(C(CO)NC(=O)c3csc(/C=N/O)n3)=N2)C1 (some centres undefined) | 16 µg/mL (≈ 36.4 µM) | 4 µg/mL (≈ 9.1 µM) | > 32 µg/mL | 1 µg/mL | 16 µg/mL (≈ 36.4 µM) | 1 µg/mL (≈ 2.28 µM) | 16 µg/mL (≈ 36.4 µM) | 16 µg/mL (≈ 36.4 µM)
COC1=CC(=O)N(C(=O)[C@H]2CSC(CNC(C)=O)=N2)C1 | 32 µg/mL (≈ 108 µM) | 16 µg/mL (≈ 53.8 µM) | > 32 µg/mL | 8 µg/mL | 16 µg/mL (≈ 53.8 µM) | 16 µg/mL (≈ 53.8 µM) | 32 µg/mL (≈ 108 µM) | 32 µg/mL (≈ 108 µM)

From ChEMBL document CHEMBL1135062, “Total synthesis and semi-synthetic approaches to analogues of antibacterial natural product althiomycin” (2002)
